# Structures can show the parent of a compound that is named as a salt. Where two headings read alike, the source gives them in different places. Where a SMILES comes first, the peptide text is derived from it.
# Key:
# [1] = target: T1, SARS-CoV-2 PLpro (nsp3 1564–1878) (Severe acute respiratory syndrome coronavirus 2, UniProt P0DTD1); assay: biochemical; design: FRET-quenched peptide (Pro3) cleavage by PLpro, 10 min pre-incubation, slope over 20 min, normalised to no-compound control; conditions: high concentration screen, read-out: % of control remaining
# [2] = target: T1, SARS-CoV-2 PLpro (nsp3 1564–1878); assay: biochemical; design: FRET-quenched peptide (Pro3) cleavage by PLpro, 10 min pre-incubation, slope over 20 min, normalised to no-compound control; conditions: low concentration screen, read-out: % of control remaining
smiles,measurement,setting,value
CC(=O)SCC[N+](C)(C)C [Acetylthiocholine chloride],remaining activity at 3.75 µM,[1]; Well no.=257,99.3%
same,remaining activity at 1.25 µM,[2]; Well no.=257,97.5%
CN1C[C@H](CO)C=C2c3cccc4[nH]cc(c34)C[C@H]21 [Lysergol],remaining activity at 3.75 µM,[1]; Well no.=3382,93.3%
same,remaining activity at 1.25 µM,[2]; Well no.=3382,96.8%
CN1C(=O)CC[C@H]1c1cccnc1 [Cotinine],remaining activity at 3.75 µM,[1]; Well no.=7163,96.3%
same,remaining activity at 1.25 µM,[2]; Well no.=7163,97.7%
O=C(O[C@@H]1C[C@@H]2C[C@H]3C[C@H](C1)N2CC3=O)c1c[nH]c2ccccc12 [Dolasetron (Mesylate hydrate)],remaining activity at 3.75 µM,[1]; Well no.=7381,98%
same,remaining activity at 1.25 µM,[2]; Well no.=7381,108%
"CC(C)[C@H]1C(=O)N[C@@H](CCCNC(=N)N)C(=O)NCC(=O)N[C@@H](CC(=O)O)C(=O)N[C@H](Cc2ccccc2)C(=O)N1C [Cilengitide (EMD 121974, NSC 707544)]",remaining activity at 3.75 µM,[1]; Well no.=5174,96.2%
same,remaining activity at 1.25 µM,[2]; Well no.=5174,94.8%
Nc1nc2[nH]cc(CCc3ccc(C(=O)N[C@@H](CCC(=O)O)C(=O)O)cc3)c2c(=O)[nH]1 [Pemetrexed],remaining activity at 3.75 µM,[1]; Well no.=8316,101%
same,remaining activity at 1.25 µM,[2]; Well no.=8316,103%
Nc1cccc(S(=O)(=O)N2CCCN(S(=O)(=O)c3ccc4c(c3)OCCO4)CC2)c1 [DASA-58],remaining activity at 3.75 µM,[1]; Well no.=8818,96.9%
same,remaining activity at 1.25 µM,[2]; Well no.=8818,95.3%
N[C@@H](Cc1c[nH]c2ccccc12)C(=O)O [L-Tryptophan],remaining activity at 3.75 µM,[1]; Well no.=1471,98.2%
same,remaining activity at 3.75 µM,[1]; Well no.=7361,100%
same,remaining activity at 1.25 µM,[2]; Well no.=1471,96.7%
same,remaining activity at 1.25 µM,[2]; Well no.=7361,100%
COc1cc2c(NC3CCN(C(C)C)CC3)nc(N3CCC(F)(F)CC3)nc2cc1OCCCN1CCCC1 [UNC0642],remaining activity at 3.75 µM,[1]; Well no.=7187,86.5%
same,remaining activity at 1.25 µM,[2]; Well no.=7187,92.5%
"O=c1cc(-c2ccccc2)oc2cc(O)c(O)cc12 [6,7-Dihydroxyflavone]",remaining activity at 3.75 µM,[1]; Well no.=3441,98.9%
same,remaining activity at 1.25 µM,[2]; Well no.=3441,100%
COc1ccccc1N1CCN(CCCNc2cc(=O)n(C)c(=O)n2C)CC1 [Urapidil hydrochloride],remaining activity at 3.75 µM,[1]; Well no.=1476,97.2%
same,remaining activity at 1.25 µM,[2]; Well no.=1476,98.2%
"Fc1cc(F)c2c(c1)C1C=CCC1C(c1cccnc1)N2 (stereo not drawn) [6,8-difluoro-4-(3-pyridinyl)-3a,4,5,9b-tetrahydro-3H-cyclopenta[c]quinoline]",remaining activity at 3.75 µM,[1]; Well no.=5390,91.3%
same,remaining activity at 1.25 µM,[2]; Well no.=5390,97.2%
O=C1C(=O)N(Cc2ccc(Cl)c(Cl)c2)c2ccccc21 [MDK83190],remaining activity at 3.75 µM,[1]; Well no.=6404,99.4%
same,remaining activity at 3.75 µM,[1]; Well no.=8130,90%
same,remaining activity at 1.25 µM,[2]; Well no.=6404,101%
same,remaining activity at 1.25 µM,[2]; Well no.=8130,94.6%
NCCCC[C@H](NC(=O)[C@H](Cc1c[nH]c2ccccc12)NC(=O)[C@@H](N)CCCCN)C(=O)O [H-Lys-Trp-Lys-OH] (H-Lys-Trp-Lys-OH),remaining activity at 3.75 µM,[1]; Well no.=8180,103%
same,remaining activity at 1.25 µM,[2]; Well no.=8180,103%
Nc1nc(=O)c2c([nH]1)NCC(CNc1ccc(C(=O)N[C@@H](CCC(=O)O)C(=O)O)cc1)N2C=O (stereo partly drawn) [Leucovorin Calcium],remaining activity at 3.75 µM,[1]; Well no.=4757,107%
same,remaining activity at 1.25 µM,[2]; Well no.=4757,103%
CCCCC[C@H](O)/C=C/C=C\C/C=C\CCCCCCC(=O)O [15(S)-HETrE],remaining activity at 3.75 µM,[1]; Well no.=4229,106%
same,remaining activity at 1.25 µM,[2]; Well no.=4229,99.3%

# From paper PMC8286840, “Identifying SARS-CoV-2 antiviral compounds by screening for small molecule inhibitors of Nsp3 papain-like protease” (Biochemical Journal, 2021)
